Measured values published in ChEMBL document CHEMBL2412999, “Anticonvulsant properties of histamine H3 receptor ligands belonging to N-substituted carbamates of imidazopropanol” (Bioorg Med Chem Lett, 2013).
Activity calls are given as the source filed them. The rule behind the calls is not given here.

Experiments:
Histamine H4 receptor = Histamine H4 receptor (Homo sapiens, UniProt Q9H3N8); experiment: Displacement of [3H]histamine from human histamine H4 receptor expressed in Sf9 cells co-expressing Gai2 and Gb1c2 subunit
[1] = target: Histamine H2 receptor (Cavia porcellus) (UniProt P47747); experiment: Antagonist activity at histamine H2 receptor in guinea pig atrium; details: Cardiac atrium
Mus musculus = experiment: In vivo inhibition of histamine H3 receptor in po dosed mouse assessed as Nt-methylhistamine level in brain; assay type: functional
Histamine H3 receptor = Histamine H3 receptor (Homo sapiens, UniProt Q9Y5N1); experiment: Displacement of [125I]iodoproxyfan from human histamine H3 receptor expressed in CHO-K1 cells; assay type: cell-based
[2] = target: Histamine H1 receptor (Cavia porcellus) (UniProt P31389); experiment: Antagonist activity at histamine H1 receptor in guinea pig ileum; assay type: tissue-based
Rattus norvegicus [3] = experiment: Anticonvulsant activity in Wistar rat assessed as protection against maximum electric shock-induced tonic hind limb extension at 10 mg/kg, ip; assay type: functional, organism-based; parameters: dose 10 mg/kg; details: Hindlimb
Rattus norvegicus [4] = experiment: Anticonvulsant activity in Wistar rat assessed as protection against maximum electric shock-induced tonic hind limb extension at 10 to 15 mg/kg, ip; assay type: functional, organism-based; details: Hindlimb
Rattus norvegicus [5] = experiment: Anticonvulsant activity in Wistar rat assessed as protection against pentylenetetrazole-induced seizure at 10 mg/kg, ip after 30 mins; assay type: functional, organism-based; parameters: dose 10 mg/kg
Rattus norvegicus [6] = experiment: Anticonvulsant activity in Wistar rat assessed as protection against maximum electric shock-induced tonic hind limb extension at 5 mg/kg, ip; assay type: functional, organism-based; parameters: dose 5 mg/kg; details: Hindlimb
Rattus norvegicus [7] = experiment: Anticonvulsant activity in Wistar rat assessed as protection against pentylenetetrazole-induced seizure at 10 mg/kg, ip after 5 to 10 mins; assay type: functional, organism-based; parameters: dose 10 mg/kg
Rattus norvegicus [8] = experiment: Anticonvulsant activity in Wistar rat assessed as protection against maximum electric shock-induced tonic hind limb extension at 10 mg/kg, ip in presence of histamine H1R antagonist pyrilamine; assay type: functional, organism-based; parameters: dose 10 mg/kg; details: Hindlimb
Rattus norvegicus [9] = experiment: Anticonvulsant activity in Wistar rat assessed as protection against maximum electric shock-induced tonic hind limb extension at 10 mg/kg, ip in presence of histamine H3R agonist RAMH; assay type: functional, organism-based; parameters: dose 10 mg/kg; details: Hindlimb
Rattus norvegicus [10] = experiment: Anticonvulsant activity in Wistar rat assessed as protection against maximum electric shock-induced tonic hind limb extension at 15 mg/kg, ip; assay type: functional, organism-based; parameters: dose 15 mg/kg; details: Hindlimb
Rattus norvegicus [11] = experiment: Anticonvulsant activity in ip dosed Wistar rat assessed as protection against maximum electric shock-induced tonic hind limb extension; assay type: functional, organism-based; details: Hindlimb

Sequence of Histamine H4 receptor (Q9H3N8 whole entry): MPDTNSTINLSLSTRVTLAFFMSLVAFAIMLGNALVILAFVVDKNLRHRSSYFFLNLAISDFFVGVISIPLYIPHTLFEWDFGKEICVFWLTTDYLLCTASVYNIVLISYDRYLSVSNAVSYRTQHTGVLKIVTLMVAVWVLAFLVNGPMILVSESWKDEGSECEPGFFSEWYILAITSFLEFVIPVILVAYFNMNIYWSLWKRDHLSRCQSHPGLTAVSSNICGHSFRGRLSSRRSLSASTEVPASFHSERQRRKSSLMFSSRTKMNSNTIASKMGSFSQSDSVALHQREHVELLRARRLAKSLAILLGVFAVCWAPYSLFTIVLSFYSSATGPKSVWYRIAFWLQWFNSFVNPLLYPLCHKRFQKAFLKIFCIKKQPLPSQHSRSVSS
Sequence of Histamine H3 receptor (Q9Y5N1 whole entry): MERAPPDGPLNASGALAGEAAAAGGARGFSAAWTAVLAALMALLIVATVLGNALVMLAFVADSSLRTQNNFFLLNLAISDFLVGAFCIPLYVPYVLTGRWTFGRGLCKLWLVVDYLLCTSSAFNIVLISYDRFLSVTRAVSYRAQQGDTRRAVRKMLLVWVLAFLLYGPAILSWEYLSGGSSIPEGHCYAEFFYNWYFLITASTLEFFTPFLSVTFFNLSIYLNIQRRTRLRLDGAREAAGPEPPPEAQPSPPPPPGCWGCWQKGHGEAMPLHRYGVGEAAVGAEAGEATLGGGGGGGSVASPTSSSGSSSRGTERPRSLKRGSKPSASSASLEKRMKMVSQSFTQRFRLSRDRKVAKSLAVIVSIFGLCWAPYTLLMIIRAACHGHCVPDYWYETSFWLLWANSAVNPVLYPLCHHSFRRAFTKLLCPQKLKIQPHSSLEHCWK
Sequence of Histamine H2 receptor (Cavia porcellus) (P47747 whole entry): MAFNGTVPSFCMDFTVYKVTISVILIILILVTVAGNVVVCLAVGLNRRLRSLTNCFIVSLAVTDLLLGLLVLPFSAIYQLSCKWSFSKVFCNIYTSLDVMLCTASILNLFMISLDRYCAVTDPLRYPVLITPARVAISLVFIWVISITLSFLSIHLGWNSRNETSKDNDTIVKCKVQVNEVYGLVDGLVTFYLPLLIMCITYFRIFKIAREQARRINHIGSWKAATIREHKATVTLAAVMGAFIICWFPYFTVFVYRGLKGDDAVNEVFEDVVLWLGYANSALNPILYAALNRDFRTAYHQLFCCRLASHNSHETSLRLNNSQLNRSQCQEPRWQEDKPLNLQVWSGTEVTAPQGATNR
Sequence of Histamine H1 receptor (Cavia porcellus) (P31389 whole entry): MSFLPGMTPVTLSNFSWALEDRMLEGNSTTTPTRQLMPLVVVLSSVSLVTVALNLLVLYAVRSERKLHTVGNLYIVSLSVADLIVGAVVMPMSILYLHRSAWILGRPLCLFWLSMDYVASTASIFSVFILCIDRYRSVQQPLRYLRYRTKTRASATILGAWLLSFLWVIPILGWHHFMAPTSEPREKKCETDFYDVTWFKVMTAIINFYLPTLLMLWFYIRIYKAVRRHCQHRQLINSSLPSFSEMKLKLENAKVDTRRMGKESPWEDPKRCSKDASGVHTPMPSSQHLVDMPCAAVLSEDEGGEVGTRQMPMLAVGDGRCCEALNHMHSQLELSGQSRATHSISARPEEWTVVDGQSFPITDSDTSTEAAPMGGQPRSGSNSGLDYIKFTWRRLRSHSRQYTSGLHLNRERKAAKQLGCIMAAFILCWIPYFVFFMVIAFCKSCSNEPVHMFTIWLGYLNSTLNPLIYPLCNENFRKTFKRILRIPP

| SMILES | Ki (Histamine H4 receptor) [nM] | pKb [1] | Ki (Histamine H3 receptor) [nM] | pKb [2] | Activity (Rattus norvegicus [3]) | also measured |
| --- | --- | --- | --- | --- | --- | --- |
| O=C(NCCc1ccc(Cl)cc1)OCCCc1c[nH]cn1 | 6760 | 4.41 | 427 | 4.82 |  | ED50 (Mus musculus): 3.1 mg/kg |
| O=C(NCCOc1ccccc1Cl)OCCCc1c[nH]cn1 | 16200 |  | 708 |  | Active | ED50 (Mus musculus): 2.2 mg/kg |
| CCC(C)CCNC(=O)OCCCc1c[nH]cn1 (stereo not drawn) | 1230 |  | 129 |  | Active | Activity (Rattus norvegicus [4]): Active; ED50 (Mus musculus): 2 mg/kg |
| O=C1NC(=O)C(c2ccccc2)(c2ccccc2)N1 |  |  |  |  | Active | Activity (Rattus norvegicus [5]): Active; Activity (Rattus norvegicus [6]): inactive; Activity (Rattus norvegicus [4]): Active |
| O=C(NCCC1CC1)OCCCc1c[nH]cn1 | 1550 | 3.5 | 170 | 3.8 |  |  |
| O=C(NCCCCOc1ccccc1)OCCCc1c[nH]cn1 | > 100000 | 4.78 | 1050 | 4.27 |  | ED50 (Mus musculus): 5.8 mg/kg |
| CCC/C=C/CNC(=O)OCCCc1c[nH]cn1 | 7080 |  | 240 |  | Active |  |
| O=C(NCCC1CCCCC1)OCCCc1c[nH]cn1 | 1550 | 4.49 | 251 | 3.96 |  |  |
| S=C(NC1CCCCC1)N1CCC(c2cnc[nH]2)CC1 |  | < 5 |  | < 5 | Active |  |
| O=C(NCCCOc1ccccc1)OCCCc1c[nH]cn1 | > 100000 | 4.26 | 1290 | 4.34 | Active | ED50 (Mus musculus): 4.1 mg/kg |
| O=C(NCCCC1CCCCC1)OCCCc1c[nH]cn1 | 4470 | 4.94 | 851 | 4.97 |  |  |
| C=CCCNC(=O)OCCCc1c[nH]cn1 | 3800 | < 4 |  | < 4 | Active | Activity (Rattus norvegicus [4]): Active |
| C[C@@H](N)Cc1c[nH]cn1 |  |  |  |  | inactive |  |
| COc1ccc(CN(CCN(C)C)c2ccccn2)cc1 |  |  |  |  | inactive |  |
| O=C(NCCCCC1CCCCC1)OCCCc1c[nH]cn1 | 5010 | 4.61 | 1950 | < 5.52 | Active | Activity (Rattus norvegicus [4]): Active |
| CC/C=C/CCNC(=O)OCCCc1c[nH]cn1 | 13200 |  | 257 |  |  |  |
| C=CCCCNC(=O)OCCCc1c[nH]cn1 | 41700 | 3.6 | 141 | 3.9 | Active | Activity (Rattus norvegicus [7]): Active; Activity (Rattus norvegicus [6]): Active; Activity (Rattus norvegicus [8]): inactive; Activity (Rattus norvegicus [9]): inactive; Activity (Rattus norvegicus [10]): Active; Activity (Rattus norvegicus [11]): Dose-dependent effect |
